Laboratory results taken from article PMC4057637, “Efficacy of novel antibacterial compounds targeting histidine kinase YycG protein” (Applied Microbiology and Biotechnology, 2014).
≈ marks a conversion by molar mass, not a printed value.

What was measured:
[1] = test system: S. epidermidis ATCC 35984; test: MIC and MBC assays, broth dilution; format: cell-based; conditions: for MBC / MIC/MBC: S. epidermidis ATCC 35984; for MIC: ATCC35984, S. epidermidis ATCC 35984, MH broth
Procedure: MICs of the derivatives for S. epidermidis and S. aureus were determined by the broth dilution method according to the National Committee for Clinical Laboratory (NCCLS) recommendations (Turnidge and Bordash [2007]). Twofold dilutions of the derivatives in tubes containing 4 ml of Mueller-Hinton broth (MH, Sigma, Germany) were made to concentrations from 200 to 0.39 μM. Overnight cultures of the bacteria were adjusted to the 0.5 McFarland standards and inoculated 1:200 into the MH broth and then incubated at 37 °C for 16–20 h. The lowest concentration inhibiting visible growth of the bacteria was recorded as minimal inhibitory concentration (MIC).

[2] = test system: S. epidermidis ATCC 35984; test: Kinetics of killing planktonic S. epidermidis; format: cell-based; conditions: for effect on growth in initial treatment phase: 1/4MIC (0.38 μM) and 1/2MIC (0.75 μM), 2 to 6 h
Procedure: An overnight culture of S. epidermidis ATCC 35984 was inoculated into 20 ml of fresh MH broth at a 1:200 dilution (10^6 CFU/ml). […] Every 2 h, 100 μl of the culture was diluted and spread on agar plates. Viable bacteria (CFU) were counted and the rate and extent of killing were determined by plotting CFU/ml against time (D’Arezzo et al. [2012]; Lee et al. [2008]). This experiment was independently repeated three times.

[3] = test system: 24-h biofilms of S. epidermidis ATCC 35984; test: Rabbit subcutaneous S. epidermidis biofilm infection model; format: in vivo, New Zealand White rabbits; conditions: 6.3 μM (4 × MIC), 1 ml local injection at 0, 24, 48 h; 72 h exposure
Procedure: To test the effectiveness in vivo of H2-74 and H2-81, 24-h biofilms of S. epidermidis grown on polyethylene disks were imbedded subcutaneously into the New Zealand White rabbits and treated with the derivatives for 72 h in a modification of the method used previously (He et al. [2011]). Disks were cut from polyethylene 96-well plates (8 mm diameter, 1 mm thickness), sterilized with 75 % ethanol and placed in a Petri dish (100 mm diameter). An overnight culture of S. epidermidis ATCC 35984 (20 ml) was inoculated into the dish and incubated at 37 °C for 24 h. The disks covered with biofilms were then implanted subcutaneously in female New Zealand White rabbits (2.0–2.5 kg) that had been anesthetized with pentobarbital sodium (5 mg/kg i.v.). Four incisions (10 mm) were made on the back of the rabbit along the spine bilaterally after removal of fur, and the sub cutis was carefully dissected to form a 2-cm × 3-cm cavity. Two biofilm-covered polyethylene disks were implanted into each cavity, and to minimize the effect of between-animal variation, four different treatments were given locally to each rabbit.
Vancomycin (128 mg/l) and 0.1 % DMSO were administered as the controls. Twenty-four hours after the last treatment, the rabbits were euthanized and the implants were taken out with sterile forceps. Biofilms were scraped from the disks, and the viable bacteria were determined by CFU counting, as previously described (He et al. [2011]). All animals were housed and used in compliance with the guidelines of the Institute of Animal Care and Use Committee, and the protocol was approved by the committee.

[4] = Staphylococcus epidermidis, ATCC35984

SMILES: CCc1ccccc1/N=C1\S/C(=C\c2ccc(OCC(=O)O)c(OC)c2)C(=O)N1c1ccccc1CC [Compound 2, {2-{4-{3-(2-ethylphenyl)-2-[(2-ethylphenyl)imino]-4-oxothiazolidin-5-ylidene}methyl}-2-methoxyphenoxy}acetic acid]
- MBC [1]: 100.0 µM (≈ 51.7 µg/mL)
- MIC/MBC [1]: 1/4
- MIC ([1]; Staphylococcus epidermidis): 25 µM (≈ 12.9 µg/mL)
- MBC [1, 4]: 100 µM (≈ 51.7 µg/mL)

SMILES: O=C(O)c1ccc(-c2ccc(C=C3SC(=Nc4ccc(F)cc4)N(c4ccc(F)cc4)C3=O)s2)cc1 [H2-60, 4-{5-{{3-(4-fluorophenyl)-2-[(4-fluorophenyl)imino]-4-oxothiazolidin-5-ylidene}methyl}thiophene-2-yl}benzoic acid]
- MIC/MBC [1]: 1/8
- MBC [1, 4]: 12.5 µM (≈ 6.48 µg/mL)

SMILES: O=C(O)COc1ccc(C=C2SC(=Nc3ccc(Cl)cc3)N(c3ccc(Cl)cc3)C2=O)cc1 [H2-74, 2-{4-{[3-(4-chlorophenyl)-2-[(4-chlorophenyl)imino]-4-oxothiazolidin-5-ylidene}methyl}phenoxy}acetic acid]
- MIC/MBC [1]: 1/16
- MBC [1, 4]: 25 µM (≈ 12.5 µg/mL)
- effect on growth in initial treatment phase [2]: inhibited the growth of S. epidermidis
- viable cells ([2]; 2 × MIC (3.1 μM), 12 h): 3.2 × 10^3 CFU/ml
- viable cells ([2]; 4 × MIC (6.3 μM), 10 h): more than 3.1 × 10^2 CFU/ml
- viable bacteria recovered from implanted disks [3]: 2.91 ± 0.42 log10 CFU/cm^2

SMILES: O=C(O)c1cccc(-c2ccc(C=C3SC(=Nc4ccc(Cl)cc4)N(c4ccc(Cl)cc4)C3=O)o2)c1 [H2-38, 3-{5-{{3-(4-chlorophenyl)-2-[(4-chlorophenyl)imino]-4-oxothiazolidin-5-ylidene}methyl}furan-2-yl}benzoic acid]
- MIC/MBC [1]: 1/8
- MBC [1, 4]: 12.5 µM (≈ 6.69 µg/mL)

SMILES: O=C(O)c1ccc(-c2ccc(/C=C3\S/C(=N\c4ccccc4)N(c4ccc(F)cc4)C3=O)s2)cc1 [H2-81, 4-{5-{{3-(4-fluorophenyl)-2-[(4-phenyl)imino]-4-oxothiazolidin-5-ylidene}methyl}thiophene-2-yl}benzoic acid]
- MIC/MBC [1]: 1/4
- MBC [1, 4]: 6.3 µM (≈ 3.15 µg/mL)
- effect on growth in initial treatment phase [2]: inhibited the growth of S. epidermidis
- viable cells ([2]; 2 × MIC (3.1 μM), 12 h): less than 3 × 10^2 CFU/ml
- viable cells ([2]; 4 × MIC (6.3 μM), 10 h): < 10 CFU/ml
- CFU remaining ([2]; 4 × MIC, 10 h, as restated in discussion): ~ 10 CFU
- viable bacteria recovered from implanted disks [3]: 2.18 log10 CFU/cm^2

SMILES: O=C(O)c1ccc(-c2ccc(C=C3SC(=Nc4ccc(Cl)cc4)N(c4ccc(Cl)cc4)C3=O)o2)cc1 [H2-39, 4-{5-{{3-(4-chlorophenyl)-2-[(4-chlorophenyl)imino]-4-oxothiazolidin-5-ylidene}methyl}furan-2-yl}benzoic acid]
- MIC/MBC [1]: 1/8
- MBC [1, 4]: 12.5 µM (≈ 6.69 µg/mL)

SMILES: O=C(O)c1ccc(-c2ccc(/C=C3\S/C(=N\c4ccccc4)N(c4ccc(Cl)cc4)C3=O)o2)cc1 [H2-57, 4-{5-{{3-(4-chlorophenyl)-2-[(4-phenyl)imino]-4-oxothiazolidin-5-ylidene}methyl}furan-2-yl}benzoic acid]
- MIC/MBC [1]: 1/4
- MIC ([1]; Staphylococcus epidermidis): ≤ 3.1 µM
- MBC [1, 4]: 12.5 µM (≈ 6.26 µg/mL)
